Source: patent US20060024373A1, “Cross-linked hyaluronic acid-laminin gels and use thereof in cell culture and medical implants” (priority 2000, published 2006)

Legend:
[1] = system: neuronal cells dissociated from brains of 14-16 days rat embryos; test: Rat embryonic brain cells cultured in enriched HA-LN-gel with antioxidants / protective agents; assay type: cell-based; settings: for most effective dose: agent added to enriched HA-LN-gel before culturing the cells, AA tested at 1 mM, 330 μM, 100 μM, NAC at 0.1, 1, 10 μM; for neuronal sprouting: first 24-48 hours of culture in the enriched gel, versus untreated control cultures
Procedure: Neuronal cells were manually dissociated from brains of 14-16 days rat embryos. Cells were embedded in the HA-LN-gel, which was enriched as described herein above. NAC and AA were obtained from SIGMA (Cat. No. 616-91-1 and […]; Lot 108H00575 and 096H02811, respectively). Pifithrin-α, cyclic (Calbiochem, Cat No. 506134, lot:B41595) is a very stable analog of pifithrin-α, with reduced cytotoxicity. NAC, AA and Pifithrin-α cyclic were added to the HA-LN-gel (enriched with neural growth factors) prior to culturing of cells. Culture medium was changed twice a week. All the experiments contained control cultures (without treatment of NAC or AA or Pifithrin-α. 5-7 experiments were performed in 12 wells, in triplicates. Dissociated brain cells were attached to DE53 cylindrical, positively charged microcarriers (MCs), and suspended in brain medium for 4-17 days ([…] 1990 Methods in Neur 2:195-209). The floating cell-MC aggregates were transferred (using fine spatula, under a stereo microscope) into HA-LN-gel enriched with the indicated growth factors or Antioxidants. During one month of daily observations the following differences (which were more pronounced in the stationary MC-cultures) were observed: […]

[2] = system: Endothelial cells (HUVEC); test: Attachment and growth of endothelial cells on or in substrates and milieus; assay type: cell-based
Procedure: In order to test the ability of HA-LN-gel to support the attachment and growth of endothelial cells, several experiments were conducted:
Endothelial cells (HE4 split #1), grown on gelatin, were collected by 0.25% trypsin-EDTA digestion. HUVEC were counted and 1.35×10^6 cells were divided into treatment groups. The cells were seeded in triplicates into 12-well plates at a concentration of 50,000 cells per well. The treatment groups were as follows: • 1. Cells seeded on the plastic • 2. Cells seeded on gelatin coating • 3. Cells seeded on HA (1 ml)+medium (0.5 ml) coating. Each well was coated with ˜0.2 ml • 4. Cells (150,000) seeded in HA (1 ml)+medium (0.5 ml). 0.5 ml per well. • 5. Cells seeded on gelatin and after attachment (24 hours) covered with HA+medium (as above, coated with 0.5 ml per well) • 6. Cells seeded on Laminin coating • 7. Cells seeded on HA-LN-gel coating (0.9 ml HA, 0.1 ml Laminin, 0.4 ml medium). Coating was with ˜0.2 ml per well • 8. Cells (150,000) seeded in HA-LN-gel (as in g) • 9. Cells seeded on gelatin and after attachment (24 hours) covered with HA-LN-gel (as in g above)
The morphology of the seeded cells was monitored microscopically every day.
Therefore the above experiment was repeated using 10% of the laminin concentration. Endothelial were seeded in 12 well plates in triplicates (50000 cell/well) as follows: • 1. Cells on gelatin coating as control. • 2. Cells on HA-LN-gel (10% of the usual concentration of laminin) coating. • 3. Cells in HA-LN-gel (10% of the usual concentration of laminin) • 4. Higher concentration of cells (100,000/well) in HA-LN-gel (10% of the usual concentration of laminin).

Molecule	most effective dose [1] [µM]	neuronal sprouting [1]	effectiveness compared between concentrations ([1]; 100 and 200 nM versus 2 μM)	effectiveness of the tested concentrations ([1]; 1 mM, 330 μM or 100 μM applied to the cell cultures)	morphology and attachment of cells seeded on the coating ([2]; 50,000 cells per well, 12-well plates, usual laminin concentration, monitored microscopically every day)	toxicity to endothelial cells as substrate coating ([2]; cells seeded on the coating)	toxic effects on EC, overall finding of first experiment ([2]; laminin alone or as a component of the HA-LN-gel, at the concentration examined)
CC(=O)N[C@@H](CS)C(=O)O [N-acetyl-L-cysteine]	10	stimulated intensive sprouting					
Cc1ccc(-c2cn3c4c(sc3n2)CCCC4)cc1 [Pifithrin-α, cyclic]		stimulated intensive sprouting	more effective				
O=C1O[C@H]([C@@H](O)CO)C(O)=C1O [Ascorbic acid]	330	stimulated intensive sprouting		effective			
laminin: adhesive glycoprotein; Murine LN-1 obtained from Sigma					appeared round and did not attach well to the substrate	toxic	some toxic effects
